According to patent US8367873B2, “Phenyl-substituted bicyclooctane-1,3-dione derivatives” (Bayer Cropscience AG, priority 2008, dated 2013):

Key:
Assay type in all cases: in vivo
Echinocloa crus-galli [1] = experiment: Herbicidal pre-emergence action; conditions: pre-emergence method, 80 g/ha, greenhouse, visual assessment vs untreated controls
Source text: (§1) Seeds of monocotylidonous and dicotylidonous weed and crop plants are placed in sandy loam in wood fibre pots and covered with soil. The test compounds, formulated in the form of wettable powders (WP), are then, as an aqueous suspension with a water application rate of 600 l/ha (converted), with 0.2% of wetting agent added, applied to the surface of the covering soil in different amounts.
(§2) After the treatment, the pots are placed in a greenhouse and kept under good growth conditions for the test plants. The visual assessment of the emergence damage on the test plants is carried out after a trial period of three weeks by comparison with the untreated controls (herbicidal effect in percent: 100% effect=the plants have died, 0% effect=like control plants).

Setaria viridis [2] = experiment: Herbicidal pre-emergence action; conditions: pre-emergence method, 80 g/ha, greenhouse, visual assessment vs untreated controls
Source text: as §1, §2

Alopecurus myosuroides [3] = experiment: Herbicidal pre-emergence action; conditions: pre-emergence method, 80 g/ha, greenhouse, visual assessment vs untreated controls
Source text: as §1, §2

Lolium multiflorum [4] = experiment: Herbicidal pre-emergence action; conditions: pre-emergence method, 80 g/ha, greenhouse, visual assessment vs untreated controls
Source text: as §1, §2

Echinocloa crus-galli [5] = experiment: Herbicidal post-emergence action; conditions: post-emergence method, 80 g/ha
Experimental: (§3) Seeds of monocotylidonous and dicotylidonous weed and crop plants are placed in sandy loam in wood fibre pots, covered with soil and cultivated in a greenhouse under good growth conditions. Two to three weeks after sowing, the test plants are treated at the one-leaf stage. The test compounds, formulated as wettable powders (WP), are then with a water application rate of 600 l/ha (converted), with 0.2% of wetting agent added, sprayed onto the green parts of the plants in different amounts. After the test plants have been kept in the greenhouse under optimum growth conditions for about three weeks, the effect of the preparations is assessed visually in comparison to untreated controls (herbicidal effect in percent: 100% effect=the plants have died, 0% effect=like control plants).

Setaria viridis [6] = experiment: Herbicidal post-emergence action; conditions: post-emergence method, 80 g/ha
Experimental: as §3

Alopecurus myosuroides [7] = experiment: Herbicidal post-emergence action; conditions: post-emergence method, 80 g/ha
Experimental: as §3

Lolium multiflorum [8] = experiment: Herbicidal post-emergence action; conditions: post-emergence method, 80 g/ha
Experimental: as §3

[9] = test system: monocotylidonous and dicotylidonous weed and crop plants; experiment: Herbicidal post-emergence action (other test plants); conditions: post-emergence method, 80 g/ha
Experimental: as §3

[10] = test system: monocotylidonous and dicotylidonous weed and crop plants; experiment: Herbicidal pre-emergence action (other test plants); conditions: pre-emergence method, 80 g/ha, greenhouse, visual assessment vs untreated controls
Source text: as §1, §2

Row | Compound | herbicidal effect ECHCG (Echinocloa crus-galli [1]) | herbicidal effect SETVI (Setaria viridis [2]) | herbicidal effect ALOMY (Alopecurus myosuroides [3]) | herbicidal effect LOLMU (Lolium multiflorum [4]) | herbicidal effect against ECHCG (Echinochloa crus-galli) (Echinocloa crus-galli [5]) | herbicidal effect against SETVI (Setaria viridis) (Setaria viridis [6]) | herbicidal effect against ALOMY (Alopecurus myosuroides) (Alopecurus myosuroides [7]) | herbicidal effect against LOLMU (Lolium multiflorum) (Lolium multiflorum [8]) | herbicidal effect against AVEFA (Avena fatua) [9] | herbicidal effect AVEFA [10]
1 | CCc1cc(C)cc(CC)c1C1=C(O)C2CC3(COC(C)O3)CC2C1=O (mixture of isomers) [I-a-7] | 70% | 70% | 100% | 90% | 100% | 90% | 90% | 100% | 60% | 80%
2 | CCc1cc(C)cc(CC)c1C1=C(O)C2CC3(CC2C1=O)OC(C)CC(C)O3 (mixture of isomers) [I-a-12] | 100% | 90% | 100% | 100% | 100% | 100% | 100% | 100% | 100% | 80%
3 | CCOC(=O)OC1=C(c2c(CC)cc(C)cc2CC)C(=O)C2CC3(CC12)OCC(C)(C)CO3 (racemic) [I-c-6] | 90% | 60% | 50% | 80% |  |  |  |  |  | 10%
4 | CCOC(=O)OC1=C(c2c(C)cc(C)cc2CC)C(=O)C2CC3(CC12)OCCO3 (racemic) [I-c-71] | 100% | 90% | 70% | 100% |  | 100% | 80% | 100% | 90% | 70%
5 | CCc1cc(C)cc(CC)c1C1=C(O)[C@H]2CC(=NOC3CC3)C[C@H]2C1=O (relative stereo) [I-a-30] |  | 70% | 80% | 70% | 100% | 50% | 90% | 90% | 0% | 0%
6 | Cc1cc(C)c(C2=C(O)C3CC4(CC3C2=O)OCC=CCO4)c(C)c1 (stereo not shown) [I-a-41] | 50% |  | 60% | 100% | 90% | 100% | 100% | 100% | 40% | 60%
7 | CCc1cc(C)cc(CC)c1C1=C(OC(=O)C(C)C)C2CC3(CC2C1=O)OC(C)CC(C)O3 (stereo not shown) [I-b-15] | 100% |  | 80% | 80% | 100% | 100% | 100% | 100% | 90% | 50%
8 | CCc1cc(C)cc(CC)c1C1=C(OC(=O)C(C)(C)C)C2CC3(CC2C1=O)OCCCO3 (stereo not shown) [I-b-27] | 100% | 70% |  | 100% | 100% | 100% | 100% | 100% | 100% | 70%
9 | CCc1cc(C)cc(CC)c1C1=C(OC(=O)C(C)C)C2CC3(CC2C1=O)OCCCO3 (stereo not shown) [I-b-29] | 100% | 80% |  | 100% | 100% | 100% | 100% | 100% | 90% | 70%
10 | Cc1cc(C)c(C2=C(OC(=O)C(C)C)C3CC4(CC3C2=O)OCC=CCO4)c(C)c1 (stereo not shown) [I-b-42] | 60% | 90% |  | 100% | 100% | 100% | 100% | 100% | 80% | 70%
11 | COc1cc(C)cc(C)c1C1=C(OC(=O)C(C)C)C2CC3(CC2C1=O)OCC=CCO3 (stereo not shown) [I-b-63] | 100% | 70% | 70% | 100% | 100% | 100% | 100% | 100% | 100% | 
12 | CCc1cc(C)cc(C)c1C1=C(OC(=O)C(C)C)C2CC3(CC2C1=O)OCCCCO3 (stereo not shown) [I-b-77] |  | 60% | 60% | 90% | 100% | 90% | 100% | 100% | 60% | 40%
13 | CCOC(=O)OC1=C(c2c(CC)cc(C)cc2CC)C(=O)C2CC3(CC12)OCC(OCc1ccccc1)CO3 (stereo not shown) [I-c-28] | 100% | 50% | 90% |  | 100% | 100% | 100% | 100% | 100% | 60%
14 | CCc1cc(C)cc(CC)c1C1=C(OC(=O)OC)C2CC3(CC2C1=O)OCCCO3 (stereo not shown) [I-c-35] |  | 70% | 80% | 100% | 100% | 100% | 100% | 100% | 100% | 70%
15 | C=C1CC2C(=O)C(c3c(C)cc(C)cc3OC)=C([O-])C2C1.[Na+] (stereo not shown) [I-f-22] |  | 100% | 80% | 80% | 100% | 100% | 30% | 80% | 40% | 70%
